We go through two compounds from US12364695B2, “Methods of treating inflammatory disease” (INTRA-CELLULAR THERAPIES, INC., priority 2020, dated 2025).

Assay [1] has as its system MCP-1/CCL2. Description: Cytokine production in plasma following zymosan sterile insult (FIG. 7). The class given is in vivo, mouse. The conditions noted are these: at 3 and 7 days, in comparison with control groups. The procedure:
FIG. 7 depicts cytokine production in plasma in test subjects following sterile insult when treated with Compound 1.
(§1) Zymosan is injected into the pleural cavities of mice in order to induce sterile inflammation. Infiltration of leukocytes, neutrophils, and macrophages are monitored at days 3 and 7 following injection. Detection of various cell types are identified according to the gating strategy outlined in Table 1 below.

In assay [2] the test system is leukocytes, neutrophils, and macrophages (M1/M2) at the site of inflammation. Description: Mouse zymosan model of sterile inflammation, flow cytometry of infiltrating cells. In kind it is in vivo. The conditions noted are these: for inflammatory resolution (shift from M1 to M2 macrophages): zymosan injection, FIGS. 1-9. How it is done: as §1
In this model, injection of zymosan causes the recruitment of various waves of leukocytes, which are observed and recorded. Exudate volume increases to a maximum over a period of 24 hours, and neutrophils increase within 4 hours and reach a maximum by 48 hours. Lymphocytes of the adaptive immune system enter at a later stage, after three days, which is signaled by macrophages presenting antigens. A resolution phase is well documented in this model and is accompanied by decreased total macrophage number and transition into M2 phenotype.
In the studies, Compounds 1 and 2 were administered to the test subjects, and the effect the compounds had on infiltration of leukocytes, neutrophils, and macrophages was observed.
Similar tests were conducted with Compound 2, the results of which are illustrated in FIGS. 8 and 9. […] An additional test was carried out according to the same method. Mice were injected intraperitoneally with 1 mg Zymosan followed by 10 mg/kg Compound 1. Macrophage levels were recorded at injection, then at 4, 8, 16, 24, 48 and 72 hours post-injection.
A general note: Flow cytometry measures light scatter and fluorescence of single cells or particles in a stream.

For assay [3], the system named is Docosahexaenoic Acid Metabolites. Description: Detection of docosahexaenoic acid metabolites, mouse zymosan pleurisy model. The class given is in vivo. The conditions noted are these: compared with controls. How it is done: (§2) Zymosan was injected into the pleural cavities of mice in order to induce sterile inflammation by the methods discussed in Example 1. Compound 1 was administered to test subjects to observe the effects on a variety of inflammatory biomarkers. Results were recorded after 4 hours. […] IFNγ, IL-1β, MCP1-β and TNF-α decreased following administration of Compound 1 in all serum and plasma samples.
(§3) Lipids are known to be involved in regulation of a multitude of cellular responses including cell growth and death, and inflammation/infection, via receptor-mediated pathways. Various lipids are involved in both the initiation and resolution of inflammation. Pro-resolving lipid mediators are produced naturally in the body from unsaturated fatty acids, such as arachidonic acid (AA) and docosahexaenoic acid (DHA). Further studies were carried out to identify metabolites of AA and DHA, which are summarized below in Tables 2 and 3.
(§4) As shown above in relation to AA metabolism, 12-HETE and 15-HETE, both intermediate mediators leading to resolution of inflammation, show increased occurrence compared with controls, while pro-inflammatory mediators TXB2, PGE2 and LTB4 all decrease. For the metabolism of DHA, each of 17-HDOHE, RVD5 and 14-HDOHE increase, all of which are related to resolution of inflammation.

Assay [4] relates to BV2 cells. Description: Microglia chemotaxis assay (Transwell, ADP). In kind it is cell-based. The conditions noted are these: 100 μM ADP, 4 hours, FIG. 10. How it is done: BV2 cells were added to upper chamber of a 5 μm pore Transwell 96-well plate over a reservoir containing 100 μM ADP and incubated at 37° C. with 5% CO2 for 4 hours. After the incubation cells were harvested with pre-warmed cell detachment solution for 30 minutes in the same incubation conditions. 75 μl of this cell detachment solution was combined with 75 μl of culture medium in a new 96 well plate compatible with a fluorescence reader. Cell number in bottom chamber was determined by adding CyQuant® GR dye and reading in the Envision fluorescence reader at 480 nm EX/520 nm EM.

For assay [5], the system named is Arachidonic Acid Metabolites. Description: Detection of arachidonic acid metabolites, mouse zymosan pleurisy model. The class given is in vivo. The conditions noted are these: compared with controls. How it is done:
as §2, §3, §4

Assay [6] relates to cytokine markers (IFNγ, IL-1β, MCP1-β, TNF-α, IL10). Description: Inflammatory biomarkers in mouse zymosan pleurisy model. The class given is in vivo. The conditions noted are these: after 4 hours. The procedure: as §2

Regarding `CN1C(=O)c2c(nn(Cc3ccc(-c4cccc(F)n4)cc3)c2Nc2ccccc2)N2C1=N[C@@H]1CCC[C@@H]12` [Compound 1], the “inflammatory biomarkers (MCP-1/CCL2) in plasma” value in assay [1] is given as “less inflammatory biomarkers”. For the same compound, the “M1 macrophage levels (CD80+, iNOS+)” value in assay [2] (1 mg Zymosan i.p. then 10 mg/kg, all observed times, FIGS. 11A and 11B) was “lower”. Besides, in assay [2] (10 mg/kg, at 4 hours, FIG. 12A), the “Arg1+ M2 macrophages” value is “increased”. The “CD206+ M2 macrophages” value in assay [2] (10 mg/kg, relative to control at 2 and 3 days, FIG. 12B) was “significantly increased”. The “total numbers of CD38+ macrophages” value in assay [2] (day 3, FIG. 5A) is given as “decreased”. For the same compound, in assay [2] (day 3, all animal groups, FIG. 5B), the “number of Egr2+ macrophages” value is on record as “decreased”. Moreover, the “MFI for CD38+ on macrophages” value in assay [2] (day 3, increase in all groups, FIG. 6A) is given as “lowest value”. For the same compound, the “MFI for CD38+ on macrophages” value in assay [2] (day 7, all groups) is “decreased”. Also, the “percentage of neutrophils relative to CD45+ leukocytes” value in assay [2] (day 7, all subjects, FIG. 3B) is reported as “dropped significantly”. Moreover, the number of neutrophils entry in assay [2] (day 7, compared with disease only and vehicle animals, FIG. 3A) is “less dramatic decrease”. In assay [2] (days 3 and 7, compared to naïve, all groups), the “MFI for Egr2+ on macrophages” value is reported as “decreased”. In assay [2] (overall trend, day 7), the “Egr2+ cell number and percent” value was “tended to increase”; the “number of CD38+ cells” value is given as “tended to decrease”. Also, in assay [2], the “inflammatory resolution (shift from M1 to M2 macrophages)” value is given as “enhanced inflammatory resolution”. Also, in assay [3], the “14-HDOHE (resolution mediator)” value is “Increase”, the “17-HDOHE (intermediate mediator linked to resolution)” value was “Increase” and the “RVD5 (intermediate mediator linked to resolution)” value is “Increase”. Further, in assay [4], the “motility of BV2 cells across the membrane” value is “marked dampening effect”. Also, in assay [5], the “5-HETE (intermediate mediator linked to resolution)” value was “No change”, the “12-HETE (intermediate mediator linked to resolution)” value is recorded as “Increase”, the “15-HETE (intermediate mediator linked to resolution)” value is “Increase” and the “LTB4 (pro-inflammatory mediator)” value was “No change”. For the same compound, in assay [5], the “PGE2 (pro-inflammatory mediator)” value is given as “Decrease” and the “TXB2 (pro-inflammatory mediator)” value is “Decrease”. In assay [6] (serum and plasma), the IFNγ result is given as “decreased”, the IL-1β entry was “decreased”, the MCP1-β entry is recorded as “decreased” and the TNF-α result was “decreased”. In addition, the IL10 entry in assay [6] (serum) is given as “decrease”.
On to `CN1C(=O)c2c(nn(Cc3ccc(-c4ccccn4)cc3)c2Nc2ccccc2)N2C1=N[C@@H]1CCC[C@@H]12` [Compound 2], for which, in assay [2] (3 mg/kg, day 7, FIG. 8), the “CD38+ macrophages” value is recorded as “significant drop”. In addition, the “Erg2+ macrophages” value in assay [2] (3 mg/kg, day 7, FIG. 9) is “sharp and significant increase”. For the same compound, in assay [2], the “inflammatory resolution (shift from M1 to M2 macrophages)” value is “enhanced inflammatory resolution”.
